From ChEMBL document CHEMBL4118281, “Azoalkyl ether imidazo[2,1-b]benzothiazoles as potentially antimicrobial agents with novel structural skeleton” (2018)
Converted amounts (≈) assume the structure as drawn.

What was measured:
[1] = test system: Staphylococcus aureus; assay: Antibacterial activity against methicillin-resistant Staphylococcus aureus N315 after 24 hrs by micro broth dilution method; format: functional; settings: N315, 24 h
[2] = test system: Staphylococcus aureus; assay: Antibacterial activity against Staphylococcus aureus ATCC 25923 after 24 hrs by micro broth dilution method; format: functional; settings: ATCC 25923, 24 h
[3] = test system: Bacillus subtilis; assay: Antibacterial activity against Bacillus subtilis after 24 hrs by micro broth dilution method; format: functional
[4] = test system: Micrococcus luteus; assay: Antibacterial activity against Micrococcus luteus ATCC 4698 after 24 hrs by micro broth dilution method; format: functional; settings: NCTC 2665, 24 h
[5] = test system: Escherichia coli; assay: Antibacterial activity against Escherichia coli DH52 after 24 hrs by micro broth dilution method; format: functional; settings: DH52, 24 h
[6] = test system: Escherichia coli; assay: Antibacterial activity against Escherichia coli JM109 after 24 hrs by micro broth dilution method; format: functional; settings: JM109, 24 h
[7] = test system: Shigella dysenteriae; assay: Antibacterial activity against Shigella dysenteriae after 24 hrs by micro broth dilution method; format: functional
[8] = test system: Pseudomonas aeruginosa; assay: Antibacterial activity against Pseudomonas aeruginosa after 24 hrs by micro broth dilution method; format: functional
[9] = test system: Bacillus; assay: Antibacterial activity against Bacillus proteus ATCC 13315 after 24 hrs by micro broth dilution method; format: functional; settings: ATCC 13315, 24 h
[10] = test system: Salmonella typhi; assay: Antibacterial activity against Bacillus typhi after 24 hrs by micro broth dilution method; format: functional, Salmonella enterica subsp. enterica serovar Typhi; settings: Salmonella enterica
[11] = test system: Candida albicans; assay: Antifungal activity against Candida albicans after 24 hrs by two fold serial dilution based spectrophotometric analysis; format: functional
[12] = test system: Pichia norvegensis; assay: Antifungal activity against Candida mycoderma after 24 hrs by two fold serial dilution based spectrophotometric analysis; format: functional
[13] = test system: Cyberlindnera jadinii; assay: Antifungal activity against Candida utilis after 24 hrs by two fold serial dilution based spectrophotometric analysis; format: functional; settings: Williopsis jadinii
[14] = test system: Aspergillus flavus; assay: Antifungal activity against Aspergillus flavus after 24 hrs by two fold serial dilution based spectrophotometric analysis; format: functional
[15] = test system: Saccharomyces cerevisiae; assay: Antifungal activity against Beer yeast after 24 hrs by two fold serial dilution based spectrophotometric analysis; format: functional

CCOc1ccc2c(c1)sc1nc(-c3ccccc3)c(COCCCCCn3cnc([N+](=O)[O-])c3)n12
MIC [1]: > 512 µg/mL
MIC [2]: 128 µg/mL (≈ 253 µM)
MIC [3]: 256 µg/mL (≈ 506 µM)
MIC [4]: 512 µg/mL (≈ 1010 µM)
MIC [5]: 128 µg/mL (≈ 253 µM)
MIC [6]: > 512 µg/mL
MIC [7]: 16 µg/mL (≈ 31.6 µM)
MIC [8]: 512 µg/mL (≈ 1010 µM)
MIC [9]: 512 µg/mL (≈ 1010 µM)
MIC [10]: 256 µg/mL (≈ 506 µM)
MIC [11]: 128 µg/mL (≈ 253 µM)
MIC [12]: 256 µg/mL (≈ 506 µM)
MIC [13]: 128 µg/mL (≈ 253 µM)
MIC [14]: 256 µg/mL (≈ 506 µM)
MIC [15]: 128 µg/mL (≈ 253 µM)

c1ccc(-c2nc3sc4ccccc4n3c2COCCCn2cncn2)cc1
MIC [1]: 16 µg/mL (≈ 41.1 µM)
MIC [2]: 4 µg/mL (≈ 10.3 µM)
MIC [3]: 8 µg/mL (≈ 20.5 µM)
MIC [4]: 64 µg/mL (≈ 164 µM)
MIC [5]: 16 µg/mL (≈ 41.1 µM)
MIC [6]: 16 µg/mL (≈ 41.1 µM)
MIC [7]: 16 µg/mL (≈ 41.1 µM)
MIC [8]: 4 µg/mL (≈ 10.3 µM)
MIC [9]: 16 µg/mL (≈ 41.1 µM)
MIC [10]: 32 µg/mL (≈ 82.2 µM)
MIC [11]: 4 µg/mL (≈ 10.3 µM)
MIC [12]: 32 µg/mL (≈ 82.2 µM)
MIC [13]: 64 µg/mL (≈ 164 µM)
MIC [14]: 16 µg/mL (≈ 41.1 µM)
MIC [15]: 64 µg/mL (≈ 164 µM)

O=[N+]([O-])c1cn(CCCOCc2c(-c3ccccc3)nc3sc4ccccc4n23)cn1
MIC [1]: 8 µg/mL (≈ 18.5 µM)
MIC [2]: 4 µg/mL (≈ 9.23 µM)
MIC [3]: 2 µg/mL (≈ 4.61 µM)
MIC [4]: 256 µg/mL (≈ 591 µM)
MIC [5]: 4 µg/mL (≈ 9.23 µM)
MIC [6]: 8 µg/mL (≈ 18.5 µM)
MIC [7]: 8 µg/mL (≈ 18.5 µM)
MIC [8]: 2 µg/mL (≈ 4.61 µM)
MIC [9]: 4 µg/mL (≈ 9.23 µM)
MIC [10]: 32 µg/mL (≈ 73.8 µM)
MIC [11]: 2 µg/mL (≈ 4.61 µM)
MIC [12]: 32 µg/mL (≈ 73.8 µM)
MIC [13]: 128 µg/mL (≈ 295 µM)
MIC [14]: 16 µg/mL (≈ 36.9 µM)
MIC [15]: 64 µg/mL (≈ 148 µM)

CCOc1ccc2c(c1)sc1nc(-c3ccccc3)c(COCCCCCCCCCCn3c([N+](=O)[O-])cnc3C)n12
MIC [1]: 128 µg/mL (≈ 217 µM)
MIC [2]: 128 µg/mL (≈ 217 µM)
MIC [3]: 32 µg/mL (≈ 54.3 µM)
MIC [4]: 512 µg/mL (≈ 868 µM)
MIC [5]: 256 µg/mL (≈ 434 µM)
MIC [6]: 512 µg/mL (≈ 868 µM)
MIC [7]: 16 µg/mL (≈ 27.1 µM)
MIC [8]: 128 µg/mL (≈ 217 µM)
MIC [9]: 256 µg/mL (≈ 434 µM)
MIC [10]: 256 µg/mL (≈ 434 µM)
MIC [11]: 128 µg/mL (≈ 217 µM)
MIC [12]: 256 µg/mL (≈ 434 µM)
MIC [13]: 256 µg/mL (≈ 434 µM)
MIC [14]: 512 µg/mL (≈ 868 µM)
MIC [15]: 64 µg/mL (≈ 109 µM)

CCOc1ccc2c(c1)sc1nc(-c3ccccc3)c(COCCCCCn3cncn3)n12
MIC [1]: > 512 µg/mL
MIC [2]: > 512 µg/mL
MIC [3]: > 512 µg/mL
MIC [4]: > 512 µg/mL
MIC [5]: > 512 µg/mL
MIC [6]: 128 µg/mL (≈ 277 µM)
MIC [7]: 256 µg/mL (≈ 555 µM)
MIC [8]: > 512 µg/mL
MIC [9]: > 512 µg/mL
MIC [10]: > 512 µg/mL
MIC [11]: > 512 µg/mL
MIC [12]: 256 µg/mL (≈ 555 µM)
MIC [13]: 256 µg/mL (≈ 555 µM)
MIC [14]: > 512 µg/mL
MIC [15]: > 512 µg/mL

O=[N+]([O-])c1cn(CCCCCOCc2c(-c3ccccc3)nc3sc4ccccc4n23)cn1
MIC [1]: 8 µg/mL (≈ 17.3 µM)
MIC [2]: 32 µg/mL (≈ 69.3 µM)
MIC [3]: 128 µg/mL (≈ 277 µM)
MIC [4]: 256 µg/mL (≈ 555 µM)
MIC [5]: 128 µg/mL (≈ 277 µM)
MIC [6]: 128 µg/mL (≈ 277 µM)
MIC [7]: 128 µg/mL (≈ 277 µM)
MIC [8]: 512 µg/mL (≈ 1110 µM)
MIC [9]: 64 µg/mL (≈ 139 µM)
MIC [10]: 128 µg/mL (≈ 277 µM)
MIC [11]: 16 µg/mL (≈ 34.7 µM)
MIC [12]: 16 µg/mL (≈ 34.7 µM)
MIC [13]: > 512 µg/mL
MIC [14]: 64 µg/mL (≈ 139 µM)
MIC [15]: 32 µg/mL (≈ 69.3 µM)

CCOc1ccc2c(c1)sc1nc(-c3ccccc3)c(COCCCn3cncn3)n12
MIC [1]: > 512 µg/mL
MIC [2]: > 512 µg/mL
MIC [3]: > 512 µg/mL
MIC [4]: > 512 µg/mL
MIC [5]: > 512 µg/mL
MIC [6]: 256 µg/mL (≈ 590 µM)
MIC [7]: > 512 µg/mL
MIC [8]: > 512 µg/mL
MIC [9]: > 512 µg/mL
MIC [10]: > 512 µg/mL
MIC [11]: 16 µg/mL (≈ 36.9 µM)
MIC [12]: 64 µg/mL (≈ 148 µM)
MIC [13]: 64 µg/mL (≈ 148 µM)
MIC [14]: 64 µg/mL (≈ 148 µM)
MIC [15]: 128 µg/mL (≈ 295 µM)

c1ccc(-c2nc3sc4ccccc4n3c2COCCCCCn2cncn2)cc1
MIC [1]: 16 µg/mL (≈ 38.3 µM)
MIC [2]: 16 µg/mL (≈ 38.3 µM)
MIC [3]: 32 µg/mL (≈ 76.6 µM)
MIC [4]: 256 µg/mL (≈ 613 µM)
MIC [5]: 32 µg/mL (≈ 76.6 µM)
MIC [6]: 16 µg/mL (≈ 38.3 µM)
MIC [7]: 8 µg/mL (≈ 19.2 µM)
MIC [8]: 32 µg/mL (≈ 76.6 µM)
MIC [9]: 32 µg/mL (≈ 76.6 µM)
MIC [10]: 32 µg/mL (≈ 76.6 µM)
MIC [11]: 4 µg/mL (≈ 9.58 µM)
MIC [12]: 8 µg/mL (≈ 19.2 µM)
MIC [13]: 64 µg/mL (≈ 153 µM)
MIC [14]: 16 µg/mL (≈ 38.3 µM)
MIC [15]: 8 µg/mL (≈ 19.2 µM)

O=[N+]([O-])c1cn(CCCCCCCCCCOCc2c(-c3ccccc3)nc3sc4ccccc4n23)cn1
MIC [1]: 16 µg/mL (≈ 30.1 µM)
MIC [2]: 32 µg/mL (≈ 60.2 µM)
MIC [3]: 64 µg/mL (≈ 120 µM)
MIC [4]: 128 µg/mL (≈ 241 µM)
MIC [5]: 16 µg/mL (≈ 30.1 µM)
MIC [6]: 64 µg/mL (≈ 120 µM)
MIC [7]: 16 µg/mL (≈ 30.1 µM)
MIC [8]: 64 µg/mL (≈ 120 µM)
MIC [9]: 32 µg/mL (≈ 60.2 µM)
MIC [10]: 64 µg/mL (≈ 120 µM)
MIC [11]: 64 µg/mL (≈ 120 µM)
MIC [12]: 64 µg/mL (≈ 120 µM)
MIC [13]: 256 µg/mL (≈ 481 µM)
MIC [14]: 128 µg/mL (≈ 241 µM)
MIC [15]: 8 µg/mL (≈ 15 µM)

CCOc1ccc2c(c1)sc1nc(-c3ccccc3)c(COCCCBr)n12
MIC [1]: > 512 µg/mL
MIC [2]: > 512 µg/mL
MIC [3]: > 512 µg/mL
MIC [4]: > 512 µg/mL
MIC [5]: > 512 µg/mL
MIC [6]: > 512 µg/mL
MIC [7]: > 512 µg/mL
MIC [8]: 16 µg/mL (≈ 35.9 µM)
MIC [9]: > 512 µg/mL
MIC [10]: 8 µg/mL (≈ 18 µM)
MIC [11]: > 512 µg/mL
MIC [12]: > 512 µg/mL
MIC [13]: > 512 µg/mL
MIC [14]: 512 µg/mL (≈ 1150 µM)
MIC [15]: > 512 µg/mL

CCOc1ccc2c(c1)sc1nc(-c3ccccc3)c(COCCCCCBr)n12
MIC [1]: > 512 µg/mL
MIC [2]: > 512 µg/mL
MIC [3]: 128 µg/mL (≈ 270 µM)
MIC [4]: > 512 µg/mL
MIC [5]: 128 µg/mL (≈ 270 µM)
MIC [6]: > 512 µg/mL
MIC [7]: 128 µg/mL (≈ 270 µM)
MIC [8]: > 512 µg/mL
MIC [9]: 128 µg/mL (≈ 270 µM)
MIC [10]: > 512 µg/mL
MIC [11]: 16 µg/mL (≈ 33.8 µM)
MIC [12]: 128 µg/mL (≈ 270 µM)
MIC [13]: > 512 µg/mL
MIC [14]: 64 µg/mL (≈ 135 µM)
MIC [15]: > 512 µg/mL
